# Measured values from patent publication US4504463A, “Process for making a lyophilized product for use in skeletal imaging” (Mallinckrodt, Inc., priority 1982, dated 1985).
# Test: Skeletal imaging with scintillation camera after intravenous injection
# Assay type: in vivo, adult human
# Conditions: for results when used instead of AMDP: carrier replaced in Example II kit; for results when used instead of the disodium salt of HMDP: carrier replaced in Example I kit
# Protocol: An imaging agent is prepared using this kit by adding about 5 ml of a pertechnetate-Tc99m physiological saline with an activity of about 75 mCi, from a commercial technetium source. The vial is agitated until the kit components are dissolved. About 1 ml of the agent is slowly injected, over a period of about 30 seconds, into an adult human subject weighing about 75 kg.
compound,measurement,setting,value
CNC(P(=O)(O)O)P(=O)(O)O [methane-N-methylaminodiphosphonic acid],results when used instead of AMDP,,substantially similar results
OCc1cc(O)ccc1O [gentisyl alcohol],results when used instead of gentisic acid,stabilizer replaced in Example I kit,substantially similar results
"CC(O)(P(=O)(O)O)P(=O)(O)O [EHDP, ethane-1-hydroxy-1,1-diphosphonic acid]",results when used instead of the disodium salt of HMDP,,substantially similar results
stannous fluoride,results when used with or instead of stannous chloride,in vivo,substantially similar results
O=S(=O)([O-])[O-].[Sn+2] [stannous sulfate],results when used with or instead of stannous chloride,reductant replaced or added in Example II kit,substantially similar results
NC(O)(P(=O)(O)O)P(=O)(O)O [methaneaminohydroxydiphosphonic acid],results when used instead of AMDP,,substantially similar results
"O=P(O)(O)CP(=O)(O)O [MDP, methanediphosphonic acid]",results when used instead of the disodium salt of HMDP,,substantially similar results
"CN(C)C(P(=O)(O)O)P(=O)(O)O [methane-N,N-dimethylaminodiphosphonic acid]",results when used instead of AMDP,,substantially similar results
"NCC(O)(P(=O)(O)O)P(=O)(O)O [ethane-1-hydroxy-2-amino-1,1-diphosphonic acid]",results when used instead of AMDP,,substantially similar results
"O=P(O)(O)C(O)P(=O)(O)O [HMDP, methanehydroxydiphosphonic acid]",results when used instead of the disodium salt of HMDP,,substantially similar results
Oc1ccc(O)cc1 [hydroquinone],results when used instead of gentisic acid,in vivo,substantially similar results
